# US6613745B1, “Therapeutic molecules derived from snake venom” (National University of Singapore, priority 1997, dated 2003)
# Entries after “also recorded” stand apart in the source; their conditions may differ. Peptide text beside a SMILES is read from it.
# System: chick biventer muscle
# Assay: Chick biventral experiment: contractile (twitch) responses evoked by electrical field stimulation
# Design: species or system Gallus domesticus
smiles,measurement,setting,value
"C[C@@H](O)[C@H](NC(=O)[C@@H]1CCCN1C(=O)[C@H](Cc1ccccc1)NC(=O)[C@@H]1CCCN1C(=O)[C@@H](N)CC(N)=O)C(=O)N[C@@H](Cc1c[nH]c2ccccc12)C(=O)N[C@@H](CCCNC(=N)N)C(=O)N[C@@H](CCCCN)C(=O)N[C@@H](CCCNC(=N)N)C(=O)N1CCC[C@H]1C(=O)NCC(=O)O [synthesized peptide, Asn-Pro-Phe-Pro-Thr-Trp-Arg-Lys-Arg-Pro-Gly] (H-NPFPTWRKRPG-OH)",contractile (twitch) response of chick biventer evoked by electrical field stimulation,"10 μg peptide added, EFS 25 V, 5 Hz×10s, 1 ms pulse width, every 100s, FIG. 1, listed as analgesic peptide",no change; also recorded: no effect
same,neurotoxic effect on the neuromuscular junction,"10 μg peptide, concluded from FIG. 1",no neurotoxic effect
